From ChEMBL document CHEMBL5247652, “Discovery of Novel Substrate-Competitive Lysine Methyltransferase G9a Inhibitors as Anticancer Agents” (J Med Chem, 2023)
≈ marks a conversion by molar mass, not a printed value.

Key:
[1] = target: T1, Histone-lysine N-methyltransferase EHMT2 (Homo sapiens, UniProt Q96KQ7); assay: Inhibition of N-terminal GST-tagged human recombinant G9a (785 to 1210 residues) expressed in baculovirus infected Sf9 cells incubated for 1 hr by AlphaLISA analysis
T1 sequence (Q96KQ7 whole entry): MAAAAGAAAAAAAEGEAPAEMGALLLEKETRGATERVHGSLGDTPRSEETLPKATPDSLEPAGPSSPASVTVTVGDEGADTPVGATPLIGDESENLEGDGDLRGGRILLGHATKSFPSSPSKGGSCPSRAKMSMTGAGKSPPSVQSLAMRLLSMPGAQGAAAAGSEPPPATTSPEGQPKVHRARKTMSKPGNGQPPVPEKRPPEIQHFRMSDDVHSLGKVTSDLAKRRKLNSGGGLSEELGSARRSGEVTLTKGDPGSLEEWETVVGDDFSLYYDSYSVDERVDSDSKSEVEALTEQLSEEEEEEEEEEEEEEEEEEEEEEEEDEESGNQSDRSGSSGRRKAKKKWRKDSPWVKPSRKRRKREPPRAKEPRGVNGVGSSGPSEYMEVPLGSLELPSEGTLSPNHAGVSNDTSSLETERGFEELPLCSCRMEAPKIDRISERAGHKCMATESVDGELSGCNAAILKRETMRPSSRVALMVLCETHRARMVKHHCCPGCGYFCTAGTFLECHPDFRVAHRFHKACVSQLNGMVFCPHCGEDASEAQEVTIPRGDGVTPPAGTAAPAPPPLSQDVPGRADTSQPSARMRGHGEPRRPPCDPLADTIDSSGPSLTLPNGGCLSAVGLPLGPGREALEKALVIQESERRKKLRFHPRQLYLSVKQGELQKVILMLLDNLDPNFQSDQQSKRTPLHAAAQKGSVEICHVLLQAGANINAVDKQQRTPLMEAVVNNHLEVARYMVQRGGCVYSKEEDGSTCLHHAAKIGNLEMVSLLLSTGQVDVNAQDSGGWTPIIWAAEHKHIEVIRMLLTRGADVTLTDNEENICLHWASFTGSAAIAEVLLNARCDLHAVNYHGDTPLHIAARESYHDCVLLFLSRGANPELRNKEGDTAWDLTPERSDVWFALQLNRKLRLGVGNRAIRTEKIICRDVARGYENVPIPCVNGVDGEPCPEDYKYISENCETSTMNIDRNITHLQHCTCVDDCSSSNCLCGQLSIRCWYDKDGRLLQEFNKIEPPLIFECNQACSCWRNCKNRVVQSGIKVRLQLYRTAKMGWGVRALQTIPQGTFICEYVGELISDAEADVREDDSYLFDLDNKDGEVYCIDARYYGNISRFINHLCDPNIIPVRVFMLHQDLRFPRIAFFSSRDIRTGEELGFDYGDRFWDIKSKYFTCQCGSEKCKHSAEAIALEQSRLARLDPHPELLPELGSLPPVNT

[2] = Aqueous solubility of compound at pH 7.4 measured for 1 hr by UV-plate reader analysis; type: physicochemical; details: buffer
[3] = Permeability of compound by PAMPA assay; type: ADME; details: read-out: permeability
[4] = Microsomal stability in human liver microsomes assessed as parent compound remaining after 30 mins in presence of NADPH by LC -MS/MS analysis; type: ADME, Microsome; details: read-out: Stability
[5] = Microsomal stability in mouse liver microsomes assessed as parent compound remaining after 30 mins in presence of NADPH by LC -MS/MS analysis; type: ADME, Microsome; details: read-out: Stability

CCCCC(NC(=O)c1[nH]c2c(c1C)C(=O)CC(C)(C)C2)C(=O)Nc1cccc(Cl)c1 (racemic)
IC50 [1]: 1540 nM | solubility at 1 h [2]: 4.5 µM (≈ 2 µg/mL)

CCCC[C@H](NC(=O)c1[nH]c2c(c1C)C(=O)CC1(CCCCC1)C2)C(=O)Nc1ccccc1
IC50 [1]: 1470 nM

Cc1c(C(=O)NC(CCc2ccccc2)C(=O)Nc2ccccc2)[nH]c2c1C(=O)CC(C)(C)C2 (racemic)
IC50 [1]: > 5000 nM

CCCC[C@H](NC(=O)c1[nH]c2c(c1C)C(=O)CC(C)(C)C2)C(=O)Nc1ccccc1
IC50 [1]: 355 nM

CSCC[C@H](NC(=O)c1[nH]c2c(c1C)C(=O)CC(C)(C)C2)c1nc2ccccc2[nH]1
IC50 [1]: 1430 nM

CCCCC(NC(=O)c1[nH]c2c(c1C)C(=O)CC(C)(C)C2)C(=O)Nc1ccc(Cl)cc1 (racemic)
IC50 [1]: 1520 nM | solubility at 1 h [2]: 5.1 µM (≈ 2.26 µg/mL)

CCCCC(NC(=O)c1[nH]c2c(c1C)C(=O)CC(C)(C)C2)C(=O)Nc1ccc(S(C)(=O)=O)cc1 (racemic)
Papp [3]: 1.39 ×10⁻⁶ cm/s | IC50 [1]: 2960 nM | solubility at 1 h [2]: 43.6 µM (≈ 21.3 µg/mL)

CCCCC(NC(=O)c1[nH]c2c(c1C)C(=O)CC(C)(C)C2)C(=O)Nc1ccc(OC)cc1 (racemic)
IC50 [1]: 1810 nM | solubility at 1 h [2]: 5.9 µM (≈ 2.59 µg/mL)

CCCCC(NC(=O)c1[nH]c2c(c1C)C(=O)CC(C)(C)C2)C(=O)Nc1ccccc1OC (racemic)
remaining at 0.5 h [4]: 11.8% | Papp [3]: 49.4 ×10⁻⁶ cm/s | remaining at 0.5 h [5]: 1.7% | IC50 [1]: 802 nM | solubility at 1 h [2]: 7.2 µM (≈ 3.16 µg/mL)

CCCC[C@@H](NC(=O)c1[nH]c2c(c1C)C(=O)CC(C)(C)C2)C(=O)Nc1ccccc1
IC50 [1]: 8640 nM

CSCCC(NC(=O)c1[nH]c2c(c1C)C(=O)CC(C)(C)C2)c1nc2ccccc2[nH]1 (racemic)
IC50 [1]: 5320 nM

Cc1c(C(=O)NC(COC2CC2)C(=O)Nc2ccccc2)[nH]c2c1C(=O)CC(C)(C)C2 (racemic)
IC50 [1]: 1600 nM

CCCCC(NC(=O)c1[nH]c2c(c1C)C(=O)CC(C)(C)C2)C(=O)Nc1cccc(C#N)c1 (racemic)
remaining at 0.5 h [4]: 79.1% | Papp [3]: 7.78 ×10⁻⁶ cm/s | remaining at 0.5 h [5]: 6.4% | IC50 [1]: 685 nM | solubility at 1 h [2]: 14.5 µM (≈ 6.3 µg/mL)

CCCC[C@@H](NC(=O)c1[nH]c2c(c1C)C(=O)CC(C)(C)C2)c1nc2ccccc2[nH]1
IC50 [1]: 4500 nM

Cc1c(C(=O)N[C@@H](CCCN(C)C)c2nc3ccccc3[nH]2)[nH]c2c1C(=O)CC(C)(C)C2
IC50 [1]: > 50000 nM

CCCCC(NC(=O)c1[nH]c2c(c1C)C(=O)CC(C)(C)C2)C(=O)Nc1cccc(OC)c1 (racemic)
IC50 [1]: 1210 nM | solubility at 1 h [2]: 3 µM (≈ 1.32 µg/mL)

CCCCC(NC(=O)c1[nH]c2c(c1C)C(=O)CCC2)C(=O)Nc1ccccc1 (racemic)
IC50 [1]: 20900 nM

Cc1c(C(=O)NC(CC2CC2)C(=O)Nc2ccccc2)[nH]c2c1C(=O)CC(C)(C)C2 (racemic)
IC50 [1]: 1160 nM

CCCCC(NC(=O)c1[nH]c2c(c1C)C(=O)CC(C)(C)C2)C(=O)NC1CCCCC1 (racemic)
remaining at 0.5 h [4]: 1.2% | Papp [3]: 4.15 ×10⁻⁶ cm/s | remaining at 0.5 h [5]: 0% | IC50 [1]: 925 nM | solubility at 1 h [2]: 15 µM (≈ 6.23 µg/mL)

CCCCC(NC(=O)c1oc2c(c1C)C(=O)CC(C)(C)C2)C(=O)Nc1ccccc1 (racemic)
IC50 [1]: > 50000 nM

CCCCC(NC(=O)c1[nH]c2c(c1C)C(=O)CC(C)(C)C2)C(=O)Nc1ccc(C)cc1 (racemic)
IC50 [1]: 491 nM | solubility at 1 h [2]: 1.8 µM (≈ 0.762 µg/mL)

CCCC[C@H](NC(=O)c1[nH]c2c(c1C(C)C)C(=O)CC(C)(C)C2)C(=O)Nc1ccccc1
IC50 [1]: 72.4 nM

CC(C)NCC(O)COc1cccc2ccccc12 (centres undefined) [PROPRANOLOL]
Papp [3]: 19.4 ×10⁻⁶ cm/s

CCCCC(NC(=O)c1[nH]c2c(c1C)C(=O)CC(C)(C)C2)C(=O)Nc1ccc(C#N)cc1 (racemic)
remaining at 0.5 h [4]: 89.5% | Papp [3]: 3.68 ×10⁻⁶ cm/s | remaining at 0.5 h [5]: 63.9% | IC50 [1]: 446 nM | solubility at 1 h [2]: 12.9 µM (≈ 5.61 µg/mL)

Cc1c(C(=O)NC(CCC2(C)CC2)C(=O)Nc2ccccc2)[nH]c2c1C(=O)CC(C)(C)C2 (racemic)
IC50 [1]: 1360 nM

Cc1c(C(=O)NC(CCCCN)C(=O)Nc2ccccc2)[nH]c2c1C(=O)CC(C)(C)C2 (racemic)
IC50 [1]: 27600 nM

CCCCC(NC(=O)c1[nH]c2c(c1C)C(=O)CC(C)(C)C2)C(=O)Nc1ccccc1Cl (racemic)
remaining at 0.5 h [4]: 30% | Papp [3]: 7.16 ×10⁻⁶ cm/s | remaining at 0.5 h [5]: 0.1% | IC50 [1]: 1080 nM | solubility at 1 h [2]: 13.9 µM (≈ 6.17 µg/mL)

CCCCC(NC(=O)c1[nH]c2c(c1C)C(=O)CC(C)(C)C2)C(=O)Nc1ccc(C(N)=O)cc1 (racemic)
remaining at 0.5 h [4]: 90.9% | Papp [3]: 0.62 ×10⁻⁶ cm/s | remaining at 0.5 h [5]: 92.2% | IC50 [1]: 526 nM | solubility at 1 h [2]: 104 µM (≈ 47.1 µg/mL)

Cc1c(C(=O)N[C@@H](CCN(C)C)c2nc3ccccc3[nH]2)[nH]c2c1C(=O)CC(C)(C)C2
IC50 [1]: 17000 nM

CCCC[C@H](NC(=O)c1[nH]c2c(c1C)C(=O)CC1(CCOCC1)C2)C(=O)Nc1ccccc1
IC50 [1]: 2080 nM

CCCCC(NC(=O)c1[nH]c2c(c1C)C(=O)CC(C)(C)C2)C(=O)N(C)c1ccccc1 (racemic)
IC50 [1]: > 50000 nM | solubility at 1 h [2]: 4.9 µM (≈ 2.08 µg/mL)

Cc1c(C(=O)NC(CCCN)C(=O)Nc2ccccc2)[nH]c2c1C(=O)CC(C)(C)C2 (racemic)
IC50 [1]: 12300 nM

CCCC[C@H](NC(=O)c1[nH]c2c(c1CC)C(=O)CC(C)(C)C2)C(=O)Nc1ccccc1
IC50 [1]: 178 nM

CCCCC(NC(=O)c1[nH]c2c(c1C)C(=O)CC(C)(C)C2)C(=O)Nc1ccc(C(=O)O)cc1 (racemic)
IC50 [1]: 1800 nM

CCCCC(NC(=O)c1[nH]c2c(c1C)C(=O)CC(C)(C)C2)C(=O)Nc1ccccc1C#N (racemic)
remaining at 0.5 h [4]: 40.8% | Papp [3]: 7.85 ×10⁻⁶ cm/s | remaining at 0.5 h [5]: 5.5% | IC50 [1]: 1570 nM | solubility at 1 h [2]: 15.5 µM (≈ 6.74 µg/mL)

CCCCC(NC(=O)c1[nH]c2c(c1C)CCC(C)(C)C2)C(=O)Nc1ccccc1 (racemic)
IC50 [1]: > 50000 nM

CCCCC(NC(=O)c1[nH]c2c(c1C)C(=O)CC(C)(C)C2)C(=O)Nc1ccccc1 (racemic)
remaining at 0.5 h [4]: 77.8% | Papp [3]: 12.5 ×10⁻⁶ cm/s | remaining at 0.5 h [5]: 19.9% | solubility at 1 h [2]: 20.1 µM (≈ 8.23 µg/mL)

CCCC(NC(=O)c1[nH]c2c(c1C)C(=O)CC(C)(C)C2)C(=O)Nc1ccccc1 (racemic)
IC50 [1]: 4040 nM

Cc1c(C(=O)NC(CCC2CCC2)C(=O)Nc2ccccc2)[nH]c2c1C(=O)CC(C)(C)C2 (racemic)
IC50 [1]: 636 nM

CCCC[C@H](NC(=O)c1[nH]c2c(c1CCC)C(=O)CC(C)(C)C2)C(=O)Nc1ccccc1
IC50 [1]: 306 nM

CCCC[C@H](NC(=O)c1[nH]c2c(c1C)C(=O)CC(C)(C)C2)c1nc2ccccc2[nH]1
IC50 [1]: 1900 nM

CCCC[C@H](NC(=O)c1[nH]c2c(c1C(C)(C)C)C(=O)CC(C)(C)C2)C(=O)Nc1ccccc1
IC50 [1]: > 50000 nM

CCCCCC(NC(=O)c1[nH]c2c(c1C)C(=O)CC(C)(C)C2)C(=O)Nc1ccccc1 (racemic)
IC50 [1]: > 50000 nM

Cc1c(C(=O)NC(CCC(C)C)C(=O)Nc2ccccc2)[nH]c2c1C(=O)CC(C)(C)C2 (racemic)
IC50 [1]: 291 nM

CCCCC(NC(=O)c1c(C)c2c(n1C)CC(C)(C)CC2=O)C(=O)Nc1ccccc1 (racemic)
IC50 [1]: > 50000 nM
